The subject of assay [1] is α-galactosidase (α-GAL), encapsulated in PICsome. Briefly: Enzyme activity of α-GAL encapsulated in PICsome, Michaelis-Menten/Lineweaver-Burk plot with Gal-AMC. The class given is biochemical. As to conditions: substrate Gal-AMC, PBS, 37° C., AMC fluorescence Ex/Em=350 nm/450 nm. The protocol:
In the same manner as in Section 5 of Example 1, a solution containing empty PICsomes was prepared. Thereafter, 11.4 mg of α-galactosidase (hereinafter referred to as “α-GAL”) was dissolved in 5.7 mL of a 10 mM phosphate buffer (PB, pH 7.4, 0 mM NaCl) to prepare a 2 mg/mL α-GAL solution.
An aliquot (1 mL) was taken from the 2 mg/mL α-GAL solution and mixed with 1 mL of the solution containing empty PICsomes. The solution mixture was stirred by a Vortex mixer for 2 minutes (2000 rpm). Thereafter, to the solution, a PB solution (5.6 mL) containing a water soluble condensing agent, EDC (10 mg/mL) was added. The mixture was allowed to stand still overnight to crosslink a polyion complex. […] A solution of fluorescence labeled α-GAL was prepared in the same manner as above.
Enzyme activity was evaluated with respect to free α-GAL and encapsulated α-GAL, respectively. […] Gal-AMC is decomposed by the enzyme activity of α-GAL to produce 7-amino-4-methyl coumarin (also referred to as “AMC”), which emits fluorescence (Ex/Em=350 nm/450 nm).
More specifically, first, PBS solutions of Gal-AMC, free α-GAL, and encapsulated α-GAL were each placed in a thermostatic chamber and allowed to stand still at 37° C. […] The plate was placed in a multiplate reader kept at 37° C. in advance and fluorescence intensity was measured periodically for a predetermined time. […]

For assay [2], the system named is α-galactosidase (α-GAL), free (unencapsulated). Briefly: Enzyme activity of free α-GAL, Michaelis-Menten/Lineweaver-Burk plot with Gal-AMC. As to conditions: substrate Gal-AMC, PBS, 37° C., AMC fluorescence Ex/Em=350 nm/450 nm. Format: biochemical. How it is done: Enzyme activity was evaluated with respect to free α-GAL and encapsulated α-GAL, respectively. The enzyme activity of α-GAL was checked by the reaction with a substrate, α-galactosyl-β-(7-amide-4-methyl coumarin) (also referred to as “Gal-AMC”) as shown in FIG. 19B. Gal-AMC is decomposed by the enzyme activity of α-GAL to produce 7-amino-4-methyl coumarin (also referred to as “AMC”), which emits fluorescence (Ex/Em=350 nm/450 nm).
More specifically, first, PBS solutions of Gal-AMC, free α-GAL, and encapsulated α-GAL were each placed in a thermostatic chamber and allowed to stand still at 37° C. Thereafter, the Gal-AMC solution was mixed with the free α-GAL or encapsulated α-GAL solution. From the solution mixture, an aliquot (predetermined amount) was taken and immediately poured to a 96 well plate (TECAN). The plate was placed in a multiplate reader kept at 37° C. in advance and fluorescence intensity was measured periodically for a predetermined time.
The enzyme activity was evaluated by preparing the Michaelis-Menten plot and Lineweaver-Burk plot. At this time, using a calibration curve previously prepared by using an AMS standard solution, a change of fluorescence intensity was converted into the production rate of a product. In this manner, a reaction rate V was obtained. Measurement was performed by changing the substrate concentration [S] variously. […]

As a reminder, the Km is the concentration of substrate that gives half-maximal velocity.

`Cc1cc(=O)oc2cc(N[C@H]3O[C@H](CO)[C@H](O)[C@H](O)[C@H]3O)ccc12` [Gal-AMC, α-galactosyl-β-(7-amide-4-methylcoumarin)]: the Km was 190 µM in assay [1] and 180 µM in assay [2].

The values are drawn from US11096991B2, “Nanoreactor using polyion complex polymersomes, and method for producing same” (THE UNIVERSITY OF TOKYO, priority 2015, dated 2021).
